In test [1] the target is T1, LecA (Pseudomonas aeruginosa, UniProt Q05097).
T1 construct: made in house
The settings on record: read-out: Kd by ITC; cited from earlier work. A general note: ITC needs no label: the signal is the heat of the interaction.

Test [2] has as its target T2, LecB (Pseudomonas aeruginosa, UniProt Q9HYN5).
T2 construct: made in house
As to the kind of experiment: Competitive binding assay based on fluorescence polarization, LecB. (In general: Polarisation of emitted light reports the rotation of a fluorescent probe.)
Procedure: LecA competitive binding assay was performed in presence of 2% DMSO, whereas LecB competitive binding assay had less than 0.5% DMSO present. In short, the compound dilution series were prepared in 96 well plates. 10 µL of each dilution in triplicates were mixed with 10 µL of master mix (40 µM LecA, 20 nM galactose-fluorescein reporter ligand S38 or 300 nM LecB and 20 nM S39 in TBS/Ca2+ buffer, Figure S3) in 384-well microtiter plates (Greiner Bio-One, Germany, cat no 781900). The plates were centrifuged (1 min, 500 g), sealed (EASYseal, Greiner Bio-One, cat no 676001) and incubated for 1 h in case of LecA and 6 h in case of LecB in a dark wet chamber under gentle shaking. Fluorescence was measured on a
PheraStar FS plate reader (BMG Labtech GmbH, Germany) with excitation filters at 485 nm and emission filters at 535 nm. The measured intensities were reduced by the blank values (protein in TBS/Ca2+ buffer) and analysed with MARS Data Analysis Software (BMG Labtech GmbH, Germany). IC50 values were determined by the four-parameter variable slope model with the minimum and maximum limits of the fit fixed according to the controls in each assay

Test [3] relates to P. aeruginosa PAO1 biofilms. As to the kind of experiment: In vitro biofilm staining under flow conditions, compound supplementation to the medium. It counts as cell-based, Pseudomonas aeruginosa. The settings on record: 500 nM in medium, 4 h, 3 mL/h, fluorescence microscope. As for the experimental part: (§1) P. aeruginosa biofilms were grown under flow conditions and observed by fluorescence microscopy in analogy to Ghanbari et al.[66] To this end, P. aeruginosa PAO1 expressing the red fluorescent protein mCherry[56] was diluted to an OD600 nm of 0.1 and injected into the microfluidics device. After a 30-min settling period, biofilms were grown under a constant laminar flow rate of 3 mL/h per channel. Following 48 h of incubation at 30 °C, dense and mature P. aeruginosa PAO1 biofilms were observed, which were then further used for analysis of the imaging probes.
To circumvent these technical drawbacks, the addition of compounds to the medium reservoir and retention at the biofilm was pursued. Imaging compounds were added to the medium reservoirs at a concentration of 500 nM, which were continuously pumped (3 mL/h) through the flow cell for 4 h. Compound accumulation at mature P. aeruginosa biofilms was immediately analyzed using fluorescence microscopy. Afterwards, the medium was exchanged, and the biofilms were washed for 30 min (3 mL/h, no compound) to monitor the retention (Figure 5). Furthermore, an analysis using CLSM was also performed after 4 h of accumulation without washing (Figures 5 and S22).
Figure 5 Staining of P. aeruginosa PAO1 biofilms grown under flow conditions with compound supplementation to the medium. Biofilm staining with (A) fluorescein divalent probe 17, (B) fluorescein control 24, (C) BODIPY divalent probe 19, and (D) BDP FL azide control 18 was monitored after 4 h of accumulation under constant flow (3 mL/h) of LB media containing 500 nM of respective compound. Retention of imaging compounds is shown after a subsequent wash period for 30 min with medium (3 mL/h, no compound). Images were recorded by using a fluorescence microscope. CLSM was performed for (E) BODIPY divalent probe 19 and the control (F) BDP FL azide 18 after 4 h of accumulation. Green signal originates from fluorescently labeled probes 17 and 19 and controls 24 and 18. P. aeruginosa constitutively expressing mCherry from pMP7605^56 is shown in red. Z-Stack size, 2 μm. Scale bar = 50 μm.
In vitro biofilm staining under flow conditions
The flow cell experiment was set up in analogy to Ghanbari et al. and in this study, optimized and established for biofilm staining.25 In principle, the experiment is based on an inlet connected to a medium source, a peristaltic pump providing constant medium flow, a flow chamber enabling analysis of bacterial growth and an outlet (waste container/bottle).
The medium used in the flow system was LB diluted by factor 5 containing 60 µg/mL
Gm. Silicone tubings 1.6 mm (ibidi, Germany) were used transporting medium from inlet to the peristaltic pump (Watson-Marlow Fluid Technology Solutions). Stopper hoses (CarlRoth) placed in peristaltic pump were coupled to silicone tubes via connectors (ibidi, Germany).
Stopper hoses are connected to bubble traps (obtained by Claus Sternberg, DTU Copenhagen) via 0.8 mm silicone tubing (ibidi, Germany). Bubble traps were used to remove air from the medium flow and to avoid biofilm disruption. Downstream from the bubble traps, the flow cell (μ-Slide VI 0.4 ibiTreat, ibidi, Germany) was placed into the system and connected to 1.6 mm silicone tubes (ibidi, Germany). The outlet is leading the medium from flow chamber to a waste […]
In order to inoculate the flow cell with P. aeruginosa PAO1 mCherry (pMP7605)23 the silicone tubes upstream and downstream of the flow chamber were pinched off by using commercial plastic clamps. The medium flow was stopped and the flow cell was inoculated by injecting 300 µL of the bacterial suspension (OD600nm of 0.1) into the silicone tubing upstream of the flow chamber. For this, a cannula (0.30 x 12 mm, Sterican) was used. The injection point was sealed with silicone glue. After bacterial settling time of 30 min, the flow was started again and clamps were removed. Growth temperature was regulated by using a heat system (ibidi, […]
Germany). […]

Test [4] concerns P. aeruginosa PAO1 biofilms. As to the kind of experiment: In vitro biofilm staining under flow conditions, injection method. It counts as cell-based, Pseudomonas aeruginosa. The following applies: 17 μM in channel, 10 min incubation, then flow 3 mL/h for 10-20 min. As for the experimental part:
as §1
Two different staining methods were evaluated for the imaging of P. aeruginosa PAO1 biofilms: (I) direct injection of the imaging compounds into the flow system or (II) compound supplementation into the medium and gradual accumulation at the biofilm (Figure S18). […] The flow of compounds 17 and 24 and their arrival in the flow cells were monitored using a fluorescence microscope attached to the flow system. […]
Figure 4 Staining of P. aeruginosa PAO1 biofilms under flow following the injection method. […] Pictures of the same aggregates were recorded prior to compound injection (t−10), during a 10 min incubation period without flow (t0) and during the wash period (constant flow, 3 mL/h) at different time points t5, t10, t15, and t20 (5, 10, 15, and 20 min) using a fluorescence microscope. […]

T1 sequence (Q05097 whole entry): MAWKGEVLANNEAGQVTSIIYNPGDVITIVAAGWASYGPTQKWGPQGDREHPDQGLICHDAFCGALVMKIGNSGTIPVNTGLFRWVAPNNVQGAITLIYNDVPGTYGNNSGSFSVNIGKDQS
T2 sequence (Q9HYN5 entry or part of it): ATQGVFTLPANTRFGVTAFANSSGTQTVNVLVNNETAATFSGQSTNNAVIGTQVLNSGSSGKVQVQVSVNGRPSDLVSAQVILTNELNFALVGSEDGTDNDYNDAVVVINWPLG

Regarding `OC[C@H]1O[C@@H](Oc2ccccc2)[C@H](O)[C@@H](O)[C@H]1O` [compound 1, phenyl β-D-galactoside], the Kd in test [1] is 8.8 µM.

The compound `C#Cc1ccc(S(=O)(=O)NC[C@H]2O[C@@H](C)[C@@H](O)[C@@H](O)[C@@H]2O)s1` [compound 23] had an IC50 in test [2] of 2.4 ± 0.5 µM.

Turning to `O=C1OC2(c3ccc(O)cc3Oc3cc(O)ccc32)c2ccccc21` [compound 24, fluorescein, reference compound], the “Biofilm staining after accumulation” value in test [3] is given as “did not result in any observable staining”. Besides, in test [4], the “Retention of fluorescence at biofilm during wash” value is “completely disappeared after 10 min”.

The term Kd denotes the equilibrium constant for the complex coming apart. The term IC50 denotes the concentration that inhibits the measured activity by half. Low readings indicate greater potency, high ones weaker potency.
